Measured values from ChEMBL document CHEMBL5729301, “ASK1 inhibitor compounds and uses thereof” (2022).

Biological target: T1, Mitogen-activated protein kinase kinase kinase 5 (Homo sapiens, UniProt Q99683)
T1 sequence (Q99683 whole entry): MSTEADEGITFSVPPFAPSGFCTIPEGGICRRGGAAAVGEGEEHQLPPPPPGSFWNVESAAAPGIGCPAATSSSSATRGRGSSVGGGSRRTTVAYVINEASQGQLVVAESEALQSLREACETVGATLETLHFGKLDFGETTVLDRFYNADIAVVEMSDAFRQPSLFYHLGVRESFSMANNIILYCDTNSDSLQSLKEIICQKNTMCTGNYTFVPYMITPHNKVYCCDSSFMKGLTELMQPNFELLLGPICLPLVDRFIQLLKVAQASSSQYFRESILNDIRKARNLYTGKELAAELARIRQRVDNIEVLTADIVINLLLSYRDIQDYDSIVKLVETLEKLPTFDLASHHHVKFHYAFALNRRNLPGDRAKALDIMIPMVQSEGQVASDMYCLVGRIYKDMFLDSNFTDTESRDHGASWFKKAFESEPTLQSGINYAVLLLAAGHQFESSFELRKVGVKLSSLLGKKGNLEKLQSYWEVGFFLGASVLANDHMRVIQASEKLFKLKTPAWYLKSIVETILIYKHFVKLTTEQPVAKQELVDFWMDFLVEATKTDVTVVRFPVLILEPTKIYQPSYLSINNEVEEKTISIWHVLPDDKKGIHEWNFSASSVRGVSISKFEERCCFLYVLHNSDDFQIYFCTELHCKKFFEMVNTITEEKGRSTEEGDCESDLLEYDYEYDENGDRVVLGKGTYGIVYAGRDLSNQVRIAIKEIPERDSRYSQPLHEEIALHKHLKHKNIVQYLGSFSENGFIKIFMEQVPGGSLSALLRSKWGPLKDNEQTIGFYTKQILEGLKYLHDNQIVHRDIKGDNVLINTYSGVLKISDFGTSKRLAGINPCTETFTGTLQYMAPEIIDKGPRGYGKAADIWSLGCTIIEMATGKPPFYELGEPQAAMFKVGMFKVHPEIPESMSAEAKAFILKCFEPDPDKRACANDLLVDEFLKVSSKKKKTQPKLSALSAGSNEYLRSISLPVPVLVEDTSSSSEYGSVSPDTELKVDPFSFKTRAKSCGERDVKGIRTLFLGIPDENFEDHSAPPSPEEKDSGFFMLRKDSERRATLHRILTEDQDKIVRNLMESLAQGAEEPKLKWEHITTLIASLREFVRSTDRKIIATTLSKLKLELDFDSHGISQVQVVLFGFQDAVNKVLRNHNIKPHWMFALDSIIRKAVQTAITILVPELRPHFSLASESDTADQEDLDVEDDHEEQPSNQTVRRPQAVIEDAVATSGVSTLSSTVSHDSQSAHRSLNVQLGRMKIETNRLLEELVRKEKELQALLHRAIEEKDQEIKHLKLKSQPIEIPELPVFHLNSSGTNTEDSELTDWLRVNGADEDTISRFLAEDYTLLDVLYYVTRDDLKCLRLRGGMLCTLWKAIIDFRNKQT
Experiment: Kinase Assay: The ASK1 enzymatic assay was run following Promega ASK1 Kinase Enzyme System (Cat #V3881). The kit provides the protocol, enzymes and all reagents necessary to run an assay.The compounds, enzyme, substrate and ATP were diluted in provided assay buffer. The final concentration of the enzyme was 50 nM, substrate (Myelin basic protein) 1 μg/mL and ATP 10 μM. The compound and the enzyme were pre-incubated in a 384-well white solid bottom plate (Greiner, Cat #784075) for 10 minutes. After incubation, the substrate and ATP were added and incubated for an additional 60 minutes. After 60 minutes, ADP-Glo™ was added and the plate was incubated for another 40 minutes. After 40 minutes, Kinase Detection Reagent was added and the plate was incubated for 45 minutes. After 45 minutes, the plate was read on a Perkin Elmer EnVision using luminescence read (0.5 seconds/well).

- IC50: < 1000 nM
Structure (SMILES): CC(=O)Nc1cccc(-c2cc3c(s2)C(=O)N(c2cccc(-c4nncn4C4CC4)n2)C3)c1
